According to PMC12284876 (RSC Advances, 2025):

Target: α-glucosidase from Saccharomyces cerevisiae (Saccharomyces cerevisiae, UniProt P53341)
Assay: α-Glucosidase inhibitory assay
Assay type: biochemical
Details: mean ± standard error, n = 3; for Inhibition (I, %) 10 μM: compound at 10 μM; for Inhibition (I, %) 10 μM / Inhibition (I, %) 25 μM: series 250–10 μM; for Inhibition (I, %) 25 μM: compound at 25 μM; for Inhibition (I, %) 50 μM: compound at 50 μM; for Inhibition (I, %) 100 μM: compound at 100 μM; for Inhibition (I, %) 250 μM: compound at 250 μM

Sequence of α-glucosidase from Saccharomyces cerevisiae (P53341 whole entry): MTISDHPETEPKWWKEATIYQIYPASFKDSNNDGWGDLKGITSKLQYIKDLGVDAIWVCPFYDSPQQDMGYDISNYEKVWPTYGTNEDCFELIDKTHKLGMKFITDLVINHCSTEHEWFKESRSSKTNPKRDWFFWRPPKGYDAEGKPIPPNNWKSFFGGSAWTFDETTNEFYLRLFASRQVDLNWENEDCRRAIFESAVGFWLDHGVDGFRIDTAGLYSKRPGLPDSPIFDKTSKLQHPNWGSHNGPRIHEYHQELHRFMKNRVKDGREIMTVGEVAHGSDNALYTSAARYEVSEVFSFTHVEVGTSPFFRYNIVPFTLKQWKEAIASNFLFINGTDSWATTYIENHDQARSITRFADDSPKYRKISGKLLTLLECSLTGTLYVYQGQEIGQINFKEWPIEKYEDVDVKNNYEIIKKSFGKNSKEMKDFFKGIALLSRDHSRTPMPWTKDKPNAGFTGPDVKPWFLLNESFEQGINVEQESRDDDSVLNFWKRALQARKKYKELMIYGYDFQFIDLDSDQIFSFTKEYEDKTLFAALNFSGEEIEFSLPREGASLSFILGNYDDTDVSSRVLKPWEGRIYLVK

SMILES | Inhibition (I, %) 10 μM [%] | Inhibition (I, %) 25 μM [%] | Inhibition (I, %) 50 μM [%] | Inhibition (I, %) 100 μM [%] | Inhibition (I, %) 250 μM
C[C@H]1O[C@H](O[C@H]2[C@H](O)[C@@H](O)[C@@H](O[C@H]3[C@H](O)[C@@H](O)C(O)O[C@@H]3CO)O[C@@H]2CO)[C@H](O)[C@@H](O)[C@@H]1N[C@H]1C=C(CO)[C@@H](O)[C@H](O)[C@H]1O (stereo partly shown) [Acarbose] | 5.45 ± 0.68 | 9.3 ± 1.2 | 21.0 ± 1.6 | 26.8 ± 1.0 | 63.8 ± 1.0%
O=c1c(O)c(-c2ccc(O)cc2)oc2cc(O)cc(O)c12 [Compound 8, kaempferol] | 8.6 ± 1.4 | 44.1 ± 2.9 | 84.9 ± 1.1 | 98.5 ± 2.2 | ^b (Inhibition > 99%)
